US4221800A, “Cycloalkenochromone” (Miles Laboratories, Inc., priority 1977, dated 1980)

Legend:
mast cells = test: inhibition of mast cell degranulation (spasmogen release) induced by phospholipase A; assay type: cell-based, rat; settings: for Relative Potency (in relation to disodium cromoglycate): IC20 relative to disodium cromoglycate, rat mast cells; for IC20: Mast cell, rat peritoneal mast cells, 37° C., ten minutes, read-out: IC20 (inhibition of mast cell degranulation by 20%)
Experimental: The anti-allergic activity was determined by measuring the inhibition of allergic release of spasmogens from mast cells, using the method of Taylor et al., as described in Int. Arch. Allergy, 46, 104(1974).
The inhibition of spasmogen release from mast cells involved obtaining pools of mast cells from normal rats. For each experiment involving pools of mast cells, 10 or more rats were killed by decapitation. The peritoneal fluid from the animals was pooled and the pool dispensed into small polyethylene tubes […] containing 25 μl of a degranulating agent phospholipase A (PL-A), and 25 μl of the drug to be tested. Each treatment was repeated in at least four tubes. All the tubes were incubated at 37° C. for ten minutes. The mast cells were fixed and stained by addition of 50 μl/tube of 2.5% toluidine blue made up in 25% acetic acid. The proportion of mast cells undergoing degranulation was assessed by counting under the microscope. At least 25 mast cells were counted from each tube. The percentage inhibition of degranulation resulting from each treatment was calculated using the formula 100[1-(x-z)/(y-z)], where `x` represents the mean percentage of cells undergoing degranulation in the tubes treated with PL-A and drug, `y` represents the mean percentage of cells undergoing degranulation in the tubes treated with PL-A only, and "z" represents the mean percentage of cells undergoing degranulation in the PL-A-negative tubes.
[See Nature, Vo. 223, 197 (1969)].

[1] = system: allergen-induced bronchoconstriction; settings: asthmatics; reference compound; cited from earlier work
[2] = system: allergic release of spasmogens in immediate hypersensitivity reactions; settings: immediate hypersensitivity reactions in several animals; Nature 223, 197 (1969); cited from earlier work

Structure (SMILES)	Relative Potency (in relation to disodium cromoglycate) (mast cells)	IC20 (mast cells) [nM]	inhibition of experimental allergen-induced bronchoconstriction (in words) [1]	inhibition of allergic release of spasmogens (in words) [2]
O=C(O)c1ccc2oc3c(c(=O)c2c1)CCCC3 [Example 1, 6-Carboxy-2,3-cyclohexenochromone]	3.1	2100		
O=c1c2c(oc3ccc(-c4nn[nH]n4)cc13)CCCC2 [Example 2, 6-(5-(1H)-tetrazolyl)-2,3-cyclohexenochromone]	3.8	1700		
CC1CCc2oc3ccc(C(=O)O)cc3c(=O)c2C1 (centres unmarked) [Example 3, 6-Carboxy-2,3-(4'-methylcyclohexeno)chromone]	1.0	6500		
CC1CCc2oc3ccc(-c4nn[nH]n4)cc3c(=O)c2C1 (centres unmarked) [Example 4, 6-(5-(1H)-tetrazolyl)-2,3-(4'-methylcyclohexeno)chromone]	1.4	4500		
CCC1CCc2oc3ccc(C(=O)O)cc3c(=O)c2C1 (centres unmarked) [Example 5, Sodium-6-carboxy-2,3-(4'-ethylcyclohexeno)chromone]	11.2	580		
CCC1CCc2oc3ccc(-c4nn[nH]n4)cc3c(=O)c2C1 (centres unmarked) [Example 6, Sodium 6-(5-(1H)-tetrazolyl)-2,3-(4'-ethylcyclohexeno)chromone]	6.5	1000		
O=C(O)c1ccc2oc3c(c(=O)c2c1)CC(C(=O)O)CC3 (centres unmarked) [Example 7, 6-Carboxy-2,3-(4'-carboxycyclohexeno)chromone]	1.0	6500		
CCOC(=O)C1CCc2oc3ccc(-c4nn[nH]n4)cc3c(=O)c2C1 (centres unmarked) [Example 8, 6-(5-(1H)-tetrazolyl)-2,3-(4'-ethoxycarbonylcyclohexeno)chromone]	1.6	4200		
O=c1c2c(oc3ccc(-c4nn[nH]n4)cc13)CCCCCC2 [Example 13, 6-(5-(1H)-tetrazolyl)-2,3-cyclooctenochromone]	5.0	1300		
O=C(O)c1ccc2oc3c(c(=O)c2c1)CC(OCc1ccccc1)CC3 (centres unmarked) [Example 15, 6-Carboxy-2,3-(4'-benzyloxycyclohexeno)chromone]	1.5	4300		
CSc1ccc2oc3c(c(=O)c2c1)CC(C(=O)O)CC3 (centres unmarked) [Example 18, 6-Methylthio-2,3-(4'-carboxycyclohexeno)chromone]	5.0	1300		
CS(=O)(=O)c1ccc2oc3c(c(=O)c2c1)CC(C(=O)O)CC3 (centres unmarked) [Example 20, 6-Methylsulfonyl-2,3-(4'-carboxycyclohexeno)chromone]	3.4	1900		
COC1CCc2oc3ccc(C(=O)O)cc3c(=O)c2C1 (centres unmarked) [Example 21, 6-Carboxy-2,3-(4'-methoxycyclohexeno)chromone]	3.6	1800		
O=C(O)c1ccc2c(=O)c3c(oc2c1)CCCC3 [Example 24, 7-Carboxy-2,3-cyclohexenochromone]	3.1	2100		
O=c1c2c(oc3cc(-c4nn[nH]n4)ccc13)CCCC2 [Example 25, 7(5-(1H)-tetrazolyl)-2,3-cyclohexenochromone]	7.2	900		
CCC1CCc2oc3cc(C(=O)O)ccc3c(=O)c2C1 (centres unmarked) [Example 26, 7-Carboxy-2,3-(4'-ethylcyclohexeno)chromone]	> 13.0	< 600		
CCC1CCc2oc3cc(-c4nn[nH]n4)ccc3c(=O)c2C1 (centres unmarked) [Example 27, 7-(5-(1H)-tetrazolyl)-2,3-(4'-ethylcyclohexeno)chromone]	> 13.0	< 600		
CC1(c2ccccc2)CCc2oc3ccc(-c4nn[nH]n4)cc3c(=O)c2C1 (centres unmarked) [Example 31, 6-(5-(1H)-tetrazolyl)-2,3-(4'-methyl-4'-phenylcyclohexeno)chromone]	4.3	1500		
CCC1CCC2=C(C1)C(=O)c1cc(C(=O)O)ccc1S2(=O)=O (centres unmarked) [Example 32, 6-Carboxy-2,3-(4'-ethylcyclohexeno)thiochromone-1,1-dioxide]	10.8	600		
CCC1CCc2sc3ccc(C(=O)O)cc3c(=O)c2C1 (centres unmarked) [Example 33, 6-Carboxy-2,3-(4'-ethylcyclohexeno)thiochromone]	1.41	4600		
CCC1CCc2sc3ccc(-c4nn[nH]n4)cc3c(=O)c2C1 (centres unmarked) [Example 35, 6-(5-(1H)-tetrazolyl)-2,3-(4'-ethylcyclohexeno)thiochromone]	18,1	360		
O=C(O)c1cc(=O)c2c(OCC(O)COc3cccc4oc(C(=O)O)cc(=O)c34)cccc2o1 [disodium cromogylcate]			effective inhibitor of experimental allergen-induced bronchoconstriction in asthmatics	specifically inhibit the allergic release of spasmogens in immediate hypersensitivity reactions in several animals
